Entries after “also recorded” stand apart in the source; their conditions may differ.
Legend:
Format in all cases: biochemical
hS1P5 = molecular target: T1, hS1P5 (Homo sapiens, UniProt Q9H228); experiment: [γ-35S]GTP binding assay, HEK293T cell membranes, S1P5; settings: read-out: EC50 Values (nM) for S1P Analogues at Recombinant S1P Receptors, hS1P5; GTPγS binding; overexpressed human HEK293 cells
T1 construct: expressed in transfected cells; host or cells: HEK293T cells (transient, calcium phosphate)
T1 sequence (Q9H228 whole entry): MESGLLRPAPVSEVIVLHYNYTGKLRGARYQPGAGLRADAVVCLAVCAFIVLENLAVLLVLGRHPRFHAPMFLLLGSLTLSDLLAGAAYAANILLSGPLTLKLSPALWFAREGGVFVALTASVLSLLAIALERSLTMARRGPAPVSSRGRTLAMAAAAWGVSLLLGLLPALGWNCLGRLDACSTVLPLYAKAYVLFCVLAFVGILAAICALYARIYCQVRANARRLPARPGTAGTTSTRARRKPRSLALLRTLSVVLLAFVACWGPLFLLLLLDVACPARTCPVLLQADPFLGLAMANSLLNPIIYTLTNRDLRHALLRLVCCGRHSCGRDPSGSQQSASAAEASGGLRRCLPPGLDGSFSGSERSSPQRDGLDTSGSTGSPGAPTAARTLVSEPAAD
Protocol: (§1) Human or mouse S1P5 DNA was mixed with an equal amount of DNA encoding a rat Gi2R protein as well as DNAs encoding cow β1 and γ2 proteins and used to transfect monolayers of HEK293T cells using the calcium phosphate precipitate method. After 60 hours, cells were harvested, and microsomes were prepared, aliquoted, and stored at −70° C. until use.
(§2) After incubating for 30 minutes at 30° C., bound radionuclide was separated from free by filtration through Whatman GF/C paper using a Brandel Cell Harvester (Gaithersburg, Md.).
(§3) Assay of cAMP accumulation was performed as described previously (See Im et al., J. Biol. Chem. 275, 14281-14286 (2000), the disclosure of which is incorporated herein). Assays were conducted on populations of 5×10^5 cells stimulated with 1 μM forskolin in the presence of the phosphodiesterase inhibitor isomethylbutylxanthine (IBMX, 1 mM) for 15 minutes. cAMP was measured by automated radioimmunoassay. The GTPγS studies were performed using zebrafish S1P1 overexpressed rat RH-7777 and human hS1P1, hS1P2, hS1P3 and hS1P5 overexpressed human HEK293 cells.
(§4) An additional series of compounds was tested using the GTPCS binding assay described in Example 2 and in Im et al., J. Biol. Chem. 275, 14281-14286 (2000), the disclosure of which is incorporated herein).

zS1P1 = molecular target: T2, zS1P1 (Danio rerio, UniProt Q9DDK4); experiment: [γ-35S]GTP binding assay, zebrafish S1P1 overexpressed in rat RH-7777 cells; settings: read-out: EC50 Values (nM) for S1P Analogues at Recombinant S1P Receptors, zS1P1; GTPγS binding; zebrafish S1P1 overexpressed rat RH-7777
T2 construct: expressed in transfected cells; host or cells: rat hepatoma RH-7777 cells
T2 sequence (Q9DDK4 1-362): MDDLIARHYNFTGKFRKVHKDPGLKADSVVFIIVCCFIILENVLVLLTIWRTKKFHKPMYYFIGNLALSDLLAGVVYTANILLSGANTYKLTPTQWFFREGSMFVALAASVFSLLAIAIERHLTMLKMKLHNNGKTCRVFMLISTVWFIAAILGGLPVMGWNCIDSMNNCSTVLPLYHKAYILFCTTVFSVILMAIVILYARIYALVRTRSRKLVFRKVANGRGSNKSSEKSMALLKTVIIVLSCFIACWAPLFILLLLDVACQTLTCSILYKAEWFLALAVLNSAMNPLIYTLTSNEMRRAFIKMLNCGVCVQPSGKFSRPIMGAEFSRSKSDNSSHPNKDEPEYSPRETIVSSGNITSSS
Protocol: as §2
Rat hepatoma RH7777 cell monolayers were transfected with human or mouse S1P5/pCR3.1 DNA using the calcium phosphate precipitate method, and clonal populations expressing the neomycin phosphotransferase gene were selected by addition of geneticin (G418) to the culture medium. The RH7777 cells were grown in monolayers at 37° C. in a 5% CO2/95% air atmosphere in growth medium consisting of 90% MEM, […], 2 mM glutamine, and 1 mM sodium pyruvate.
as §3

mS1P5 = molecular target: T3, mS1P5 (Mus musculus, UniProt Q91X56); experiment: [γ-35S]GTP binding assay, mouse S1P5; settings: read-out: EC50 Values (nM) for S1P Analogues at Recombinant S1P Receptors, mS1P5, GTPγS binding
T3 construct: expressed in transfected cells; host or cells: HEK293T cells (transient)
T3 sequence (Q91X56 whole entry): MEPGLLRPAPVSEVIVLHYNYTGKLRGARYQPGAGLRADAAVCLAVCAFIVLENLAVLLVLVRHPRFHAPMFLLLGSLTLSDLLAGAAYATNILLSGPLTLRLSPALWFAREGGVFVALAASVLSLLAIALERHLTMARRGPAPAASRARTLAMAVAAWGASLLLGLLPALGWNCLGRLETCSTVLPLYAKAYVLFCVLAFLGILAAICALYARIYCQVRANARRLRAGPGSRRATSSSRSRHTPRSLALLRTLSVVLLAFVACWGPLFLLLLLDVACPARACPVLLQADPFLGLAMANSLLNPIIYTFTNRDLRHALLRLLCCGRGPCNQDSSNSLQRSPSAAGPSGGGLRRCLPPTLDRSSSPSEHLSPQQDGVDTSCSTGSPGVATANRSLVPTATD
Protocol: as §1, §2, §3

hS1P3 = molecular target: T4, hS1P3 (Homo sapiens, UniProt Q99500); experiment: [γ-35S]GTP binding assay, HEK293T cell membranes, S1P3; settings: GTPγS binding; for EC50: read-out: EC50 Values (nM) for S1P Analogues at Recombinant S1P Receptors, hS1P3, overexpressed human HEK293 cells
T4 construct: expressed in transfected cells; host or cells: HEK293T cells (transient)
T4 sequence (Q99500 whole entry): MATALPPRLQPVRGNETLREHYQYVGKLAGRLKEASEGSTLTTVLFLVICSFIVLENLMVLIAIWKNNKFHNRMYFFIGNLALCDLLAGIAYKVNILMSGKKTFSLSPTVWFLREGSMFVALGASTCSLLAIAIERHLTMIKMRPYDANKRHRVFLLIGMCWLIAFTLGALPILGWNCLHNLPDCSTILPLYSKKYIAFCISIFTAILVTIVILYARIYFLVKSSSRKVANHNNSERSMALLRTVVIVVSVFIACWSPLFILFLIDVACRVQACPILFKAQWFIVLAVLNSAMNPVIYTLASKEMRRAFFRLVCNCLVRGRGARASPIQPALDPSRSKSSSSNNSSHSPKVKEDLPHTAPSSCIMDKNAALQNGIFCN
Protocol: as §1, §2, §3, §4

hS1P2 = molecular target: T5, hS1P2 (Homo sapiens, UniProt O95136); experiment: [γ-35S]GTP binding assay, HEK293T cell membranes, S1P2; settings: GTPγS binding; for EC50: read-out: EC50 Values (nM) for S1P Analogues at Recombinant S1P Receptors, hS1P2, overexpressed human HEK293 cells
T5 construct: expressed in transfected cells; host or cells: HEK293T cells (transient)
T5 sequence (O95136 whole entry): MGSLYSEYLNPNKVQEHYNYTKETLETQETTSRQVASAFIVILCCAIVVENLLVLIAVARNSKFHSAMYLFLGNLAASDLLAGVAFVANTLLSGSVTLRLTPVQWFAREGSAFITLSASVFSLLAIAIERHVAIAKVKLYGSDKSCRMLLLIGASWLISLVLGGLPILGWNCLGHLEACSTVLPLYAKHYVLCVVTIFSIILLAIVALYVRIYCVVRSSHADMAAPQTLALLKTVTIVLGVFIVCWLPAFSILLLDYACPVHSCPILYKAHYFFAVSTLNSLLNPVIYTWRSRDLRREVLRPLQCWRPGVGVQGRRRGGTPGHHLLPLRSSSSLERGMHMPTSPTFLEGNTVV
Protocol: as §1, §2, §3, §4

hS1P1 = molecular target: T6, hS1P1 (Homo sapiens, UniProt P21453); experiment: [γ-35S]GTP binding assay, HEK293T cell membranes, S1P1; settings: GTPγS binding; for EC50: read-out: EC50 Values (nM) for S1P Analogues at Recombinant S1P Receptors, hS1P1, overexpressed human HEK293 cells
T6 construct: expressed in transfected cells; host or cells: HEK293T cells (transient)
T6 sequence (P21453 whole entry): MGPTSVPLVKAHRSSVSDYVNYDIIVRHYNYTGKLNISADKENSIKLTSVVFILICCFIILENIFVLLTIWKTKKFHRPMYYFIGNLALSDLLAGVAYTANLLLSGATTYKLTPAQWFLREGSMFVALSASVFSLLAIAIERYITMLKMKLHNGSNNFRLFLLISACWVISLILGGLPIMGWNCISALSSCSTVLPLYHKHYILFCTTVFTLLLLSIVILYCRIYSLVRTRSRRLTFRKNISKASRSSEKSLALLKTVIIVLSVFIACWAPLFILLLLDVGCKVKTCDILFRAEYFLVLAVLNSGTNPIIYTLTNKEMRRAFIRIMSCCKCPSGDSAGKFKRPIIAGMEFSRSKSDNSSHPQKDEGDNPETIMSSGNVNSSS
Protocol: as §1, §2, §3, §4

S1P receptors [1] = tested on: T7, S1P receptors; experiment: [γ-35S]GTP binding assay, recombinant S1P receptors in general; settings: various S1P receptors
T7 construct: other: various S1P receptors
Protocol: (§5) The same results were obtained regardless of whether the recombinant receptor used exogenous G proteins (HEK293T cells) or endogenous G proteins (RH7777 cells). In addition, insect Sf9 cells infected with recombinant baculovirus encoding receptors (e.g. […] The Sf9 cell and HEK293T cell membranes gave similar results. Furthermore, the activities measured in the broken cell assay predicted the responses seen in whole cell assays. […] After incubating for 30 minutes at 30° C., bound radionuclide was separated from free by filtration through Whatman GF/C paper using a Brandel Cell Harvester (Gaithersburg, Md.). Assay of cAMP accumulation was performed as described previously (See Im et al., J. Biol. […] Assays were conducted on populations of 5×10^5 cells stimulated with 1 μM forskolin in the presence of the phosphodiesterase inhibitor isomethylbutylxanthine (IBMX, 1 mM) for 15 minutes. cAMP was measured by automated radioimmunoassay.

hS1P4 = molecular target: T8, hS1P4 (Homo sapiens, UniProt O95977); experiment: [γ-35S]GTP binding assay, HEK293T cell membranes, S1P4; settings: GTPγS binding
T8 construct: expressed in transfected cells; host or cells: HEK293T cells (transient)
T8 sequence (O95977 1-384): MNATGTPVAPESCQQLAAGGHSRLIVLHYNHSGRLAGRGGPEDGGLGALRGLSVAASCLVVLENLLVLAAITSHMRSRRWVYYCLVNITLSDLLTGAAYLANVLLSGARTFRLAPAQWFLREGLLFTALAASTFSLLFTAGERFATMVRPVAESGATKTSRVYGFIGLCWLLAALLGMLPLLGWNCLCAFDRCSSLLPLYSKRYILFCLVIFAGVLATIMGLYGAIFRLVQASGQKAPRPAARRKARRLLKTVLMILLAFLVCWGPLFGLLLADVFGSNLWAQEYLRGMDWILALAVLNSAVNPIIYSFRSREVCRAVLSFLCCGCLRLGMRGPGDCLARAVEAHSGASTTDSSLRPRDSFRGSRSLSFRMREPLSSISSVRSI
Protocol: as §2, §4

S1P receptors [2] = experiment: [γ-35S]GTP binding assay, recombinant S1P receptors in general; settings: each receptor
Protocol: as §5

## CCCCCCCCCCCCCCNC(=O)[C@@H](N)COP(=O)(O)O [VPC22051]
hS1P5
  EC50: > 5000 nM
zS1P1
  EC50: > 5000 nM
mS1P5
  EC50: > 5000 nM
hS1P3
  EC50: 602 nM
hS1P2
  EC50: 2760 nM
hS1P1
  EC50: 322 nM

## CCCCCCCCCCCCCCNC(=O)[C@H](N)COP(=O)(O)O [VPC22135]
hS1P3
  potency compared with S1P at the human S1P3 receptor: approached the potency of S1P
hS1P1
  potency compared with S1P at the human S1P1 receptor: approached the potency of S1P

## CCCCCCCCc1ccccc1NC(=O)[C@H](N)COP(=O)(O)O [VPC23089]
hS1P3
  agonism or inverse agonism (antagonism) at the S1P3 receptor: inverse agonists
hS1P2
  activity at the S1P2 receptor: inactive; also recorded: failed to show significant activity

## CCCCCCCCCCc1cccc(NC(=O)[C@H](N)COP(=O)(O)O)c1 [VPC23069]
hS1P3
  agonism or inverse agonism (antagonism) at the S1P3 receptor: agonism
hS1P2
  activity at the S1P2 receptor: inactive; also recorded: failed to show significant activity

## CCCCCCCCCCc1cccc(NC(=O)[C@H](N)CO)c1 [VPC23065]
S1P receptors [1]
  agonist activity at S1P receptors: significant agonist activity
hS1P2
  activity at the S1P2 receptor: inactive; also recorded: failed to show significant activity
hS1P4
  agonist activity at the S1P4 receptor: good agonist activity

## CCCCCCCCc1cccc(NC(=O)[C@H](N)COP(=O)(O)O)c1 [VPC23019]
hS1P3
  agonism or inverse agonism (antagonism) at the S1P3 receptor: inverse agonists
hS1P2
  activity at the S1P2 receptor: inactive; also recorded: failed to show significant activity
hS1P1; competition with S1P
  antagonism at S1P1: antagonism

## CCCCCCc1cccc(NC(=O)[C@H](N)COP(=O)(O)O)c1 [VPC23031]
hS1P3
  agonism or inverse agonism (antagonism) at the S1P3 receptor: inverse agonists
hS1P2
  activity at the S1P2 receptor: inactive; also recorded: failed to show significant activity

## CCCCCCCCc1ccccc1NC(=O)[C@H](N)CO [VPC23087]
S1P receptors [1]
  agonist activity at S1P receptors: significant agonist activity
hS1P2
  activity at the S1P2 receptor: inactive; also recorded: failed to show significant activity
hS1P4
  agonist activity at the S1P4 receptor: good agonist activity

## CCCCCCCCCc1cccc(NC(=O)[C@H](N)COP(=O)(O)O)c1 [VPC23079]
hS1P3
  agonism or inverse agonism (antagonism) at the S1P3 receptor: agonism
hS1P2
  activity at the S1P2 receptor: inactive; also recorded: failed to show significant activity

## CCCCCCCCCCCCC/C=C/[C@@H](O)[C@@H](N)COP(=O)(O)O [Compound S1P, Sphingosine-1-phosphate, reference compound]
S1P receptors [2]
  increase of GTPγS binding at each receptor: 2-5 fold

## CCCCCCCCCCCCCCOC(=O)[C@@H](N)COP(=O)(O)O [VPC22053]
hS1P5
  EC50: 1610 nM
zS1P1
  EC50: > 5000 nM
mS1P5
  EC50: 2010 nM
hS1P3
  less potent than enantiomer VPC22135 at the S1P3 receptor: more than 1 log order
  EC50: 862 nM
hS1P2
  EC50: 2680 nM
hS1P1
  less potent than enantiomer VPC22135 at the S1P1 receptor: more than 1 log order
  EC50: 397 nM

## CCCCCCCCCc1cccc(NC(=O)[C@H](N)CO)c1 [VPC23075]
S1P receptors [1]
  agonist activity at S1P receptors: significant agonist activity
hS1P2
  activity at the S1P2 receptor: inactive; also recorded: failed to show significant activity
hS1P4
  agonist activity at the S1P4 receptor: good agonist activity

From patent US7638637B2, “Orally available sphingosine 1-phosphate receptor agonists and antagonists” (University of Virginia Patent Foundation, priority 2003, dated 2009)
